Structures are written as SMILES.

Test [1] relates to sweet sensitive panelists. Briefly: Forced choice test of sweetness enhancers with sweetness rating (Example 2). The conditions noted are these: scale 0-10. The format is in vivo. Here is the method:
A forced choice test of sweetness enhancers in water, 2% sucrose and 7% sucrose
All sweetness enhancer samples were evaluated at the same concentration, which was selected close to the threshold of each sweetness enhancer, in 0% sucrose (water), 2% sucrose, and 7% sucrose.
The test samples were evaluated by a sensory panel of 10 sweet sensitive panelists. Samples were presented in 3 replicates to each panelist to give n=30 evaluations for each panel. The sensory evaluation was conducted using a forced choice method. Samples were presented blind, unidentifiable by panelists. Three runs at different sucrose concentrations were performed (0% sucrose (water/negative control), 2% sucrose, 7% sucrose). In each run, the sweetness enhancer sample was compared by panelists to a corresponding sample without sweetness enhancer at the same sucrose concentration. Panelists were instructed that they had to choose one of the samples as sweeter. The data was analyzed using beta-binomial analysis. […]
Alternatively, 0% (water), 0.5% and/or 1% and/or 1.5% sucrose were used for samples/corresponding controls and evaluated accordingly.
As a further control, the sweetness enhancer in water was compared to 0.5% and/or 1% and/or 1.5% sucrose. The result determined the sweetness intensity of the sweetness enhancer compound as such, without the sweetness due to the enhancement of sucrose.

Test [2] has as its system sweet sensitive panelists. As to the kind of experiment: Ranking test, near threshold sweetness isointensity of enhancer in water (Example 3b). The format is in vivo. Here is the method:
The sensory evaluation was conducted using a ranking method. Samples at ambient temperature were randomly presented in 15 ml blind aliquots (unidentifiable by panelists). […] After tasting each sample, the mouth was rinsed thoroughly with water at ambient temperature prior to tasting the next sample. […] They were asked to rank the samples from low to high with respect to perceived sweet taste.

The test system of another test is sucrose sweetness. Particulars: at its sweetness detection threshold; Kroeze et al., Chem. Senses 2000; cited from earlier work.
For the next test, the system named is panelists. Briefly: Fractionated swingle extract: comparative sensory evaluation in 0% and 2% sucrose. The format is in vivo. Particulars: from fractions at 60 ppm in 2% sucrose and LC-MS analysis. Here is the method:
Swingle extract, comprising 80% total mogroside content by weight, was fractionated by reversed phase (C-18) flash chromatography. Compounds were eluted using a mixture of methanol (MeOH) in water starting at 30% MeOH (264 ml) followed by a linear gradient of 30-80% MeOH (1320 ml) then finally the column was flushed with 80% MeOH (264 ml). The solvents were introduced at a flow rate of 30 ml/min throughout the separation procedure. Eluted compounds were visualized with a UV detector set at 210 nm and a Corona light scattering detector. Collected fractions were pooled according to the table below then freeze dried to powders.
The powders corresponding to various pooled fractions as given in the table below were dissolved in a concentration of 60 ppm in either 0% or 2% sucrose. The sample in 0% sucrose when determined to be sweet was in addition to the 0% sucrose control also compared to a 2% sucrose control and to the other fractions to estimate the degree of sweetness.

Consider `OC[C@H]1O[C@@](CO)(O[C@H]2O[C@H](CO)[C@@H](O)[C@H](O)[C@H]2O)[C@@H](O)[C@@H]1O` [sucrose, α-D-glucopyranosyl-(1→2)-β-D-fructofuranose], for which the “rating 1% sucrose” value turned out to be 0.81 ± 0.08 in test [1] (rating 2 of Example 12B) and 0.72 ± 0.06 in test [1] (rating 2 of Example 12C).

`COc1ccc(CCC(=O)c2c(O)cc(O[C@@H]3O[C@H](CO)[C@@H](O)[C@H](O)[C@H]3O[C@@H]3O[C@@H](C)[C@H](O)[C@@H](O)[C@H]3O)cc2O)cc1O` [NDHC, Neohesperidin dihydrochalcone]: in test [2] (2 ppm in water), the “isointensity to sucrose solution” value is given as 0.5 % sucrose. Besides, the NDHC sample sweetness result is “isosweet” in test [2] (2 ppm in water vs 0.5% sucrose) and “less sweet” in test [2] (2 ppm in water vs 1% sucrose). Besides, the “enhancement of sucrose sweetness” value in the test on sucrose sweetness is “does not enhance sucrose sweetness”.

As to `C[C@H](CC[C@@H](O[C@@H]1O[C@H](CO)[C@@H](O)[C@H](O)[C@H]1O[C@@H]1O[C@H](CO)[C@@H](O)[C@H](O)[C@H]1O)C(C)(C)O)[C@H]1CC[C@@]2(C)[C@H]3CC=C4[C@@H](CC[C@H](O[C@@H]5O[C@H](CO[C@@H]6O[C@H](CO)[C@@H](O)[C@H](O)[C@H]6O)[C@@H](O)[C@H](O)[C@H]5O)C4(C)C)[C@]3(C)[C@H](O)C[C@]12C` [mogroside IV], the “contribution to the observed enhancement effect of swingle extract” value with panelists was “contributing marginally”.

The values are drawn from patent publication US20210015134A1, “CONSUMABLES” (Givaudan S.A., priority 2006, published 2021).
